In patent US20170042152A1, “SAFENED HERBICIDAL COMPOSITIONS COMPRISING PYRIDINE CARBOXYLIC ACIDS” (priority 2015, published 2017):

Columns and labels:
kochia (KCHSC) = assay: Greenhouse postemergence trial, weed efficacy; format: in vivo, Kochia scoparia; details: cloquintocet-mexyl 0 g ai/ha, 20-22 d
Procedure: (§1) Seeds of the desired test plant species were planted in Sun Gro MetroMix® 306 planting mixture, which typically has a pH of 6.0 to 6.8 and an organic matter content of about 30 percent, in plastic pots with a surface area of 103.2 square centimeters (cm^2). When required to ensure good germination and healthy plants, a fungicide treatment and/or other chemical or physical treatment was applied. The plants were grown for 7-36 days (d) in a greenhouse with an approximate 14-hour (h) photoperiod which was maintained at about 18° C. during the day and 17° C. during the night. Nutrients and water were added on a regular basis and supplemental lighting was provided with overhead metal halide 1000-Watt lamps as necessary. The plants were employed for testing when they reached the second or third true leaf stage.
(§2) Weighed amounts of technical material were dissolved in a volume of 97:3 volume per volume (v/v) acetone/dimethyl sulfoxide (DMSO) to stock solutions. […] Compound requirements are based upon a 12 milliliter (mL) application volume at a rate of 187 liters per hectare (L/ha). Stock solutions of the safeners were prepared following the same procedure. Spray solutions of the safeners and experimental compound mixtures were prepared by adding the stock solutions to the appropriate amount of dilution solution to form a 12 mL spray solution in two-way combinations. Formulated compounds were applied to the plant material with an overhead Mandel track sprayer equipped with 8002E nozzles calibrated to deliver 187 L/ha over an application area of 0.503 square meters (m^2) at a spray height of 18 inches (43 centimeters (cm)) above average plant canopy. Control plants were sprayed in the same manner with the solvent blank.
(§3) The treated plants and control plants were placed in a greenhouse as described above and watered by sub-irrigation to prevent wash-off of the test compounds. After 20-22 d, the condition of the test plants as compared with that of the control plants was determined visually and scored on a scale of 0 to 100 percent where 0 corresponds to no injury and 100 corresponds to complete kill. Colby's equation was used to determine the herbicidal effects expected from the mixtures.

spring barley (HORVS) = assay: Greenhouse postemergence safening trial, crop phytotoxicity; format: in vivo, Hordeum vulgare; details: cloquintocet-mexyl 0 g ai/ha, 20-22 d
Procedure: as §1, §2, §3

wild buckwheat (POLCO) = assay: Greenhouse postemergence trial, weed efficacy; format: in vivo, Polygonum convulvus; details: cloquintocet-mexyl 0 g ai/ha, 20-22 d
Procedure: as §1, §2, §3

lambsquarters (CHEAL) [1] = assay: Small plot field trial, weed growth reduction; format: in vivo, Chenopodium album; details: 20 g ae/ha herbicide (triisopropanol amine salt), no safener, post-emergence, mean
Canada thistle (CIRAR) = assay: Small plot field trial, weed growth reduction; format: in vivo, Cirsuim arvensis; details: 20 g ae/ha herbicide (triisopropanol amine salt), no safener, post-emergence, mean
lambsquarters (CHEAL) [2] = assay: Greenhouse postemergence trial, weed efficacy; format: in vivo, Chenopodium album; details: herbicide 20 g ae/ha, cloquintocet-mexyl 0 g ai/ha, 20-22 d
Procedure: as §1, §2, §3

wild mustard (SINAR) = assay: Greenhouse postemergence trial, weed efficacy; format: in vivo, Sinapis arvensis; details: herbicide 20 g ae/ha, cloquintocet-mexyl 0 g ai/ha, 20-22 d
Procedure: as §1, §2, §3

shepherd's purse (CAPBP) = assay: Greenhouse postemergence trial, weed efficacy; format: in vivo, Capsella bura-pastoris; details: herbicide 20 g ae/ha, cloquintocet-mexyl 0 g ai/ha, 20-22 d
Procedure: as §1, §2, §3

[3] = tested on: bird's-eye speedwell (VERPE); assay: Greenhouse postemergence trial, weed efficacy; format: in vivo, Veronica persica; details: cloquintocet-mexyl 0 g ai/ha, 20-22 d
Procedure: as §1, §2, §3

winter wheat (TRZAW) [4] = assay: Greenhouse postemergence safening trial, crop phytotoxicity; format: in vivo, Triticum aestivum; details: herbicide 20 g ae/ha, cloquintocet-mexyl 0 g ai/ha, 20-22 d
Procedure: as §1, §2, §3

spring wheat (TRZAS) = assay: as above; format: in vivo, Triticum aestivum; details: cloquintocet-mexyl 0 g ai/ha, 20-22 d
Procedure: as §1, §2, §3

wild pansy (VIOTR) = assay: Greenhouse postemergence trial, weed efficacy; format: in vivo, Viola tricolor; details: cloquintocet-mexyl 0 g ai/ha, 20-22 d
Procedure: as §1, §2, §3

durum wheat (TRZDU) = assay: Small plot field trial, crop safety; format: in vivo, Triticum durum; details: 20 g ae/ha herbicide (triisopropanol amine salt), no safener, post-emergence, mean
Procedure: (§4) The triisopropanol amine salts of herbicides of formulas I-G-A, I-G-B and I-G-C were tested with and without cloquintocet-mexyl in small plot field trials across various ecozones to evaluate the crop safety of these compounds on […] cereals including winter wheat and durum wheat.
(§5) All herbicide treatments were applied post-emergence in the spring to early summer. Herbicides were applied with bicycle or tractor-mounted sprayers using carbon dioxide (CO2) as a propellant. The sprayers delivered a uniform spray pattern that provided thorough coverage of the foliage using a 150 or 200 L/ha spray volume. At the time of herbicide applications, winter wheat was at the two leaf growth stage and durum wheat was at the 2-3 leaf growth stage.
(§6) Phytotoxicity to cereal crops was visually assessed as percent overall injury, compared to an untreated control plot. The overall injury assessments were based on visual ratings of growth inhibition, chlorosis, and delay in maturity. At late ratings (54-57 days after application), percent visual seed head deformity and reduction in seed formation were also assessed. Trials were designed as randomized complete blocks with four replicates. In general, three to four replicates were assessed for each treatment.

winter wheat (TRZAW) [5] = assay: Small plot field trial, crop safety; format: in vivo, Triticum aestivum; details: 20 g ae/ha herbicide (triisopropanol amine salt), no safener, post-emergence, mean
Procedure: as §4, §5, §6

Russian thistle (SASKR) = assay: Greenhouse postemergence trial, weed efficacy; format: in vivo, Salsola iberica; details: cloquintocet-mexyl 0 g ai/ha, 20-22 d
Procedure: as §1, §2, §3

CCc1nc(C(=O)O)c(Cl)c(N)c1F [formula I-G-A]
% visual injury KCHSC Ob (kochia (KCHSC); herbicide 4.375 g ae/ha): 13% | % visual injury KCHSC Ob (kochia (KCHSC); herbicide 8.75 g ae/ha): 23% | % visual injury KCHSC Ob (kochia (KCHSC); herbicide 17.5 g ae/ha): 32% | % visual injury KCHSC Ob (kochia (KCHSC); herbicide 35 g ae/ha): 67% | % visual injury KCHSC Ob (kochia (KCHSC); herbicide 70 g ae/ha): 67% | % visual injury HORVS Ob (spring barley (HORVS); herbicide 4.375 g ae/ha): 0% | % visual injury HORVS Ob (spring barley (HORVS); herbicide 8.75 g ae/ha): 3% | % visual injury HORVS Ob (spring barley (HORVS); herbicide 17.5 g ae/ha): 10% | % visual injury HORVS Ob (spring barley (HORVS); herbicide 20 g ae/ha): 13% | % visual injury HORVS Ob (spring barley (HORVS); herbicide 35 g ae/ha): 37% | % visual injury HORVS Ob (spring barley (HORVS); herbicide 70 g ae/ha): 47% | % visual injury POLCO Ob (wild buckwheat (POLCO); herbicide 4.375 g ae/ha): 0% | % visual injury POLCO Ob (wild buckwheat (POLCO); herbicide 8.75 g ae/ha): 49% | % visual injury POLCO Ob (wild buckwheat (POLCO); herbicide 17.5 g ae/ha): 40% | % visual injury POLCO Ob (wild buckwheat (POLCO); herbicide 35 g ae/ha): 75% | % visual injury POLCO Ob (wild buckwheat (POLCO); herbicide 70 g ae/ha): 96% | Growth reduction of CHEAL, % of untreated (lambsquarters (CHEAL) [1]): 100 % of untreated | Growth reduction of CIRAR, % of untreated (Canada thistle (CIRAR)): 95.5 % of untreated | % visual injury CHEAL Ob (lambsquarters (CHEAL) [2]): 85% | % visual injury SINAR Ob (wild mustard (SINAR)): 97% | % visual injury CAPBP Ob (shepherd's purse (CAPBP)): 100% | % visual injury VERPE Ob ([3]; herbicide 4.375 g ae/ha): 0% | % visual injury VERPE Ob ([3]; herbicide 8.75 g ae/ha): 7% | % visual injury VERPE Ob ([3]; herbicide 17.5 g ae/ha): 23% | % visual injury VERPE Ob ([3]; herbicide 35 g ae/ha): 50% | % visual injury VERPE Ob ([3]; herbicide 70 g ae/ha): 77% | % visual injury TRZAW Ob (winter wheat (TRZAW) [4]): 25% | % visual injury TRZAS Ob (spring wheat (TRZAS); herbicide 4.375 g ae/ha): 0% | % visual injury TRZAS Ob (spring wheat (TRZAS); herbicide 8.75 g ae/ha): 7% | % visual injury TRZAS Ob (spring wheat (TRZAS); herbicide 17.5 g ae/ha): 33% | % visual injury TRZAS Ob (spring wheat (TRZAS); herbicide 35 g ae/ha): 60% | % visual injury TRZAS Ob (spring wheat (TRZAS); herbicide 70 g ae/ha): 70% | % visual injury VIOTR Ob (wild pansy (VIOTR); herbicide 4.375 g ae/ha): 3% | % visual injury VIOTR Ob (wild pansy (VIOTR); herbicide 8.75 g ae/ha): 20% | % visual injury VIOTR Ob (wild pansy (VIOTR); herbicide 17.5 g ae/ha): 37% | % visual injury VIOTR Ob (wild pansy (VIOTR); herbicide 35 g ae/ha): 65% | % visual injury VIOTR Ob (wild pansy (VIOTR); herbicide 70 g ae/ha): 82% | TRZDU Visual head deformation, % of untreated (durum wheat (TRZDU)): 4.3 % of untreated | TRZDU Visual injury, % of untreated (durum wheat (TRZDU)): 5.7 % of untreated | Instances of TRZAW grain reduction, % of untreated (winter wheat (TRZAW) [5]): 39.9 % of untreated | TRZAW grain formation reduction, % of untreated (winter wheat (TRZAW) [5]): 27.9 % of untreated | % visual injury SASKR Ob (Russian thistle (SASKR); herbicide 4.375 g ae/ha): 67% | % visual injury SASKR Ob (Russian thistle (SASKR); herbicide 8.75 g ae/ha): 72% | % visual injury SASKR Ob (Russian thistle (SASKR); herbicide 17.5 g ae/ha): 75% | % visual injury SASKR Ob (Russian thistle (SASKR); herbicide 35 g ae/ha): 82% | % visual injury SASKR Ob (Russian thistle (SASKR); herbicide 70 g ae/ha): 82%

CC(F)c1nc(C(=O)O)c(Cl)c(N)c1F (stereo not shown) [formula I-G-B]
Growth reduction of CHEAL, % of untreated (lambsquarters (CHEAL) [1]): 100 % of untreated | Growth reduction of CIRAR, % of untreated (Canada thistle (CIRAR)): 85 % of untreated | TRZDU Visual head deformation, % of untreated (durum wheat (TRZDU)): 6.4 % of untreated | TRZDU Visual injury, % of untreated (durum wheat (TRZDU)): 6.4 % of untreated | Instances of TRZAW grain reduction, % of untreated (winter wheat (TRZAW) [5]): 83.3 % of untreated | TRZAW grain formation reduction, % of untreated (winter wheat (TRZAW) [5]): 68.3 % of untreated
